Publication PMC6120236 (FEBS Open Bio, 2018)
Like-named read-outs stand apart in the source and are kept apart here.

Legend:
[1] = target: T1, WT ITK (His6-tagged human wild-type ITK kinase domain) (Homo sapiens, UniProt Q08881); test: ADP-Glo kinase assay; type: biochemical
T1 construct: Ni-NTA, Q Sepharose, Superdex 200
T1 sequence (Q08881 357-620 limits assumed): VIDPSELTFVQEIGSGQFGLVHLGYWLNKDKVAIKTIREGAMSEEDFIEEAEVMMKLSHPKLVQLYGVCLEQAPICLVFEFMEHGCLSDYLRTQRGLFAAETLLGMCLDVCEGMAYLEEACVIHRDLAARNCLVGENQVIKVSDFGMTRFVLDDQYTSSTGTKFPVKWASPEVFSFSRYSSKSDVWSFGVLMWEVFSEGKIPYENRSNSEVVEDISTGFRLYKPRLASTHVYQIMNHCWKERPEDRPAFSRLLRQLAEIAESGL
Source text: ADP-Glo kinase assay on WT ITK (His6-tagged human wild-type ITK kinase domain)

[2] = target: T1, WT ITK (His6-tagged human wild-type ITK kinase domain); test: SPR (Biacore, NTA capture coupling); type: binding
[3] = target: T1, WT ITK (His6-tagged human wild-type ITK kinase domain); test: biochemical kinase inhibition assay
CLK1 = CLK1 (Homo sapiens, UniProt P49759); test: DiscoveRx KINOMEscan; conditions: read-out: Percentage of control binding / J-31
Source text: DiscoveRx KINOMEscan on CLK1

LCK = LCK (Homo sapiens, UniProt P06239); test: DiscoveRx KINOMEscan; conditions: read-out: Percentage of control binding / J-95
Source text: DiscoveRx KINOMEscan on LCK

HCK = HCK (Homo sapiens, UniProt P08631); test: DiscoveRx KINOMEscan; conditions: read-out: Percentage of control binding / J-95
Source text: DiscoveRx KINOMEscan on HCK

Chain of CLK1 (P49759 whole entry): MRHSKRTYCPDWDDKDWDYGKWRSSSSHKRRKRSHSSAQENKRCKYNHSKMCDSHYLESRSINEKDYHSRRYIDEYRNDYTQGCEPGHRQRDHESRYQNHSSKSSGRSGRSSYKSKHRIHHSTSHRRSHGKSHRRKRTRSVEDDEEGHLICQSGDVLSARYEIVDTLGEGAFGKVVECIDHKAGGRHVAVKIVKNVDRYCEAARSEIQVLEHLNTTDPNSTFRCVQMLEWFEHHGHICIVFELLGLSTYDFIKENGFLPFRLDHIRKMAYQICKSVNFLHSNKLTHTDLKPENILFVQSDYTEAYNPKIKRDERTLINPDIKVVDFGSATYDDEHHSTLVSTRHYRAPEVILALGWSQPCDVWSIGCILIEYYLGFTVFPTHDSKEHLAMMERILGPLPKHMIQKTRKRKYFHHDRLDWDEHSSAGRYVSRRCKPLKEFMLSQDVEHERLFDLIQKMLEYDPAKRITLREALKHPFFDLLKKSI
Chain of LCK (P06239 2-509): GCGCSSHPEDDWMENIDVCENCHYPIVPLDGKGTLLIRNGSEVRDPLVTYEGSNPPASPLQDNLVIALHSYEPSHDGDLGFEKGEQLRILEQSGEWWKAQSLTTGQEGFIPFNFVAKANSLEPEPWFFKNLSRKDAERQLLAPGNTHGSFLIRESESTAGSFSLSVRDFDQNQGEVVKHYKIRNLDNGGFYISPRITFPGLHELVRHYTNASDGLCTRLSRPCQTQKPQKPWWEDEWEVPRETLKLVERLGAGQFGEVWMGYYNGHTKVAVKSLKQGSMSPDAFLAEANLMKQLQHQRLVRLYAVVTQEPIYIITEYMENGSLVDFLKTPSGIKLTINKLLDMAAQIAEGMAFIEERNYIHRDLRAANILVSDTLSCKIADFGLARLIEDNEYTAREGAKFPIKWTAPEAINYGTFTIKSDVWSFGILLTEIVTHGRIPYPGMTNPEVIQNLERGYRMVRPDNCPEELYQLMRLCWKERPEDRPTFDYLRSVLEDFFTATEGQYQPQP
Chain of HCK (P08631 2-526): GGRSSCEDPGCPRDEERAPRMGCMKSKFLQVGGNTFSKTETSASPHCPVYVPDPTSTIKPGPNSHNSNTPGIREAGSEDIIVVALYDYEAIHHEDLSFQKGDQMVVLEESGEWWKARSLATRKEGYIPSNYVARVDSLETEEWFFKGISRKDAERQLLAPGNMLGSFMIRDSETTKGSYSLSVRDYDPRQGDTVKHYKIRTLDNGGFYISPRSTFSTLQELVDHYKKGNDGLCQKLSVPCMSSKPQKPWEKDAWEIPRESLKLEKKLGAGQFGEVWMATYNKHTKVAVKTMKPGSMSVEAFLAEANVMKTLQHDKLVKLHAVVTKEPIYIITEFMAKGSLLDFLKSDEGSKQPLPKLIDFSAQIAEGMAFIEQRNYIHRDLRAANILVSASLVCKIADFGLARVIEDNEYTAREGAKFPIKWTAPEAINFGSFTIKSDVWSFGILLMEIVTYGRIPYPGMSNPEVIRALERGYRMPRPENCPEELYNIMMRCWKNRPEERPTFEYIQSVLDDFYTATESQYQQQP

SMILES | IC50 [1] | Kd ([2]; read-out: K D) | other results
COc1cc(C)c(Sc2cnc(NC(=O)c3ccc(CNC(C)C(C)(C)C)cc3)s2)cc1C(=O)N1CCN(C(C)=O)CC1 (centres unmarked) [A, BMS-509744] | 2.5 nM | 1.3 nM | 
COc1cc(C)c(Sc2cnc(NC(C)=O)s2)cc1C(=O)N1CCN(C(C)=O)CC1 [B, Derivative of A] | 260 nM | 75 nM | 
CC(C)Oc1ccc2cccc(-n3cc(NC(N)=O)c(C(N)=O)n3)c2c1 [C, Pfizer compound 9] | 24 nM | 25 nM | 
CC(=O)N1CCCC(n2nc(-c3cccc(C(=O)Nc4ccc(C(C)C)cc4)c3)c3c(N)ncnc32)C1 (centres unmarked) [E, Derivative of D] | 460 nM | 1100 nM | 
CCc1ccc2nc(Nc3cc(Cc4ccccc4)nc(N[C@H]4CC[C@H](O)CC4)n3)sc2c1 [G, GSK compound 13] | 3.5 nM | 3.6 nM | 
COc1ccc(OCCn2c(NC(=O)c3ccco3)nc3ccccc32)cc1 [J-31] |  |  | IC50 [3]: 5500 nM; Kd [2]: 3400 nM; remaining binding at 50 µM (CLK1): 21%
CCOC(=O)/C=C1\CC(=O)Nc2cc(C)c(C)cc2N1 [J-95] |  |  | remaining binding at 20 µM (LCK): 29%; IC50 [3]: 3300 nM; Kd [2]: 1000 nM; remaining binding at 20 µM (HCK): 33%
